Laboratory results reported in the METLIN SMRT retention time set (Domingo-Almenara et al. 2019).

assay: gradient 5% acetonitrile 3 min, to 50% in 2 min, to 85% in 15 min, held 3 min, 100 µL/min; conditions: column: Zorbax Extend-C18 2.1 x 50 mm; eluents: water / acetonitrile, 0.1% formic acid
Outline: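 Retention times of pure standards were taken from adduct peaks that were selected by computer and manually inspected. Over 3 months, mixtures of ~100 molecules were run by HPLC–quadrupole time-of-flight mass spectrometry in positive and negative ionization mode. The Zorbax Extend-C18 column (2.1 × 50 mm, 1.8 μm) ran at 100 μL/min in water and acetonitrile, each containing 0.1% formic acid, with 40 μL dead volume and 900 μL dwell volume.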

Structure (SMILES) | RP-LC retention time [s]
Cc1ccc2nc(-c3ccc(N4CCOCC4)cc3)c(Nc3ccc4c(c3)OCO4)n2c1 | 690
COc1ccc2c(c1)C1(CCN(C(=O)CC(C)(C)C)C1)C(=O)N2 (configuration not stated) | 725
COc1ccc(Cl)cc1S(=O)(=O)N1CCc2nc(-c3ccc(F)cc3)ncc2C1 | 1130
CC(C)N1C(=O)c2cccnc2Sc2cc(NC(=O)c3ccccc3F)ccc21 | 896
O=C(Nc1cccc(F)c1)C1CC(=O)N(CCc2c[nH]c3ccc(Cl)cc23)C1 (configuration not stated) | 844
CC(C)n1c(N2CCN(C(=O)c3ccncc3)CC2)cc(=O)n(C(C)C)c1=O | 601
CCOc1ccccc1CNC(=O)CN1CCN(Cc2ccccc2)C1=O | 848
Cc1ccc(C(=O)Nc2ccc3c(c2)Sc2ncccc2C(=O)N3C)cc1C | 876
CCc1cccc(C)c1Nc1c(-c2ccc(C)cc2)nc2ncccn12 | 878
COc1ccc(NC(=O)N2CC3CCCN3c3ccccc32)cc1 (configuration not stated) | 985
Cc1ccc(C)c(-c2coc(-c3ccc(NC(=O)C(C)(C)C)cc3)n2)c1 | 1280
COc1cc(NC(=O)Cn2c(C)nc3c(sc4nc(-c5ccccc5)ccc43)c2=O)cc(OC)c1 | 1060
COc1ccc2[nH]cc(CCNC(=O)c3cnn(-c4ccc(Cl)cc4)c3C3CCNCC3)c2c1 | 694
COc1cc2c(cc1CC=C(C)C)C(=O)C[C@@H](c1ccc(O)cc1)O2 | 1190
CCn1c(CCNC(=O)c2ccc(N(C)C)cc2)nc2cccnc21 | 625
COC(=O)c1ccc(C2CC(=O)Nc3cc(OC)cc(OC)c32)cc1 (configuration not stated) | 784
CC(C)Oc1ccc(NC(=O)C2CCN(S(C)(=O)=O)c3ccccc3O2)cc1 (configuration not stated) | 935
CC1(C(=O)NCc2ccccc2)CN(S(C)(=O)=O)CC(=O)N1Cc1cccc(Br)c1 (configuration not stated) | 815
Cc1cc2nc(Nc3nc(SCc4ccc(Cl)cc4)cc(=O)[nH]3)nc(C)c2cc1C | 1110
Cc1ccc(NS(=O)(=O)c2cc(-c3nc(C(C)(C)C)cs3)cs2)c(Cl)c1 | 1320
COc1ccc2c(c1)C1(CCN(S(=O)(=O)c3ccc4c(c3)CC(=O)N4C)C1)C(=O)N2C (configuration not stated) | 744
COc1ccc(CCc2nc3nccc(-c4ccsc4)n3n2)cc1 | 946

Structure (SMILES) | RP-LC retention time [s]
Cn1cnc(S(=O)(=O)N2CCOc3ccc(CN4CCc5ccccc5C4)cc3C2)c1 | 518
CCOC(=O)c1[nH]c(C)c(C(=O)NCCN(C)C)c1C | 571
O=C(Nc1ccc(F)cc1F)Nc1c(-c2ccc(F)cc2)nc2ccccn12 | 677
CCCn1cc(C(=O)Nc2cc(OC)ccc2OC)c(=O)c2ccc(C)nc21 | 1090
Cc1cccc(C(C)C)c1NC(=O)C1CCN(S(C)(=O)=O)c2ccccc2O1 (configuration not stated) | 957
Cc1cccc(CCNC(=O)Cc2csc3nc(-c4ccccc4)cn23)c1 | 810
O=C(NCc1cccs1)c1cccn1Cc1noc(-c2ccccc2)n1 | 972
Cc1cc2ccccc2n1-c1ccc(C(N)=O)s1 | 842
Cc1cccc(NC(=O)c2ccc(=O)n(C)n2)n1 | 595
O=C(NCc1cccnc1)c1nc(CCS(=O)(=O)c2ccccc2)no1 | 593
CCN1CCN(CCNC(=O)C(C)n2c3ccccc3c3cnn(C)c(=O)c32)CC1 (configuration not stated) | 544
CN1C(=O)[C@H]2CN(Cc3cc(F)cc(F)c3)C[C@H]2C1=O | 610
Cc1ccc(-c2csc(NC(=O)CSc3nc4c(cc3C#N)CCC4)n2)cc1 | 1210
COc1cccc(OCC(=O)Nc2ccc3c(c2)N(C(=O)c2ccco2)CCC3)c1 | 877
O=C(Nc1nc(-c2ccc(F)cc2)cs1)c1cccc(Br)c1 | 1120
O=C(C1=CN(c2ccc(F)cc2)c2ccccc2S1(=O)=O)N1CCOCC1 | 741
Cc1ccc(-n2nnnc2CNC(=O)c2cc(Br)ccc2Cl)cc1 | 835
COc1cc2c(cc1OC)C(C(=O)Nc1ccc(F)cc1F)C(c1cccs1)N(C)C2=O (configuration not stated) | 827
CCOC(=O)c1noc2nc(C)nc(Nc3ccc(CC)cc3)c12 | 1160
CCc1cccc(C)c1Nc1c(-c2ccc(OC)c(OC)c2)nc2cnccn12 | 805
COc1ccc(-c2nc3cccnc3n2C2CCN(S(=O)(=O)Cc3ccccc3)C2)cc1 (configuration not stated) | 874

Results, then the molecule that gave them:

RP-LC retention time [s] | Structure (SMILES)
728 | Cc1ccc(CNC(=O)c2ccc(CN3CCN(C4CCCC4)C(=O)C3=O)cc2)o1
783 | CCn1cc(CC(=O)NCC2CCCCC2)c2cccnc21
633 | CCn1cc(CN2CC(Oc3ccc(-c4noc(-c5ccncc5)n4)cc3)C2)cn1
642 | COc1ccc(NC(=O)Cn2ncc3c(N4CCN(c5ccccn5)CC4)ncnc32)cc1Cl
877 | CCOC(=O)Cn1nc2ccc(S(=O)(=O)N3CCC(C)CC3)cn2c1=O
714 | O=C(CSc1cc(-n2ccc(C(=O)NC3CC3)n2)ncn1)Nc1ccc2c(c1)OCO2
925 | CCc1nc2cc(-c3noc(-c4ccc(NC(C)=O)cc4)n3)ccc2o1
1010 | CC(C)c1cccc(N2C=C(C(=O)N3CCCCC3)S(=O)(=O)c3ccccc32)c1
762 | O=C(NCCc1ccco1)C1CCN(Cc2cc3ccccc3n2Cc2ccccc2)CC1
807 | CC1CCN(c2ncc3c(n2)CCN(Cc2ccc(OC(C)C)cc2)C3)CC1
1080 | COc1ccc(N2CCN(c3cc(SCC(=O)NCCC4=CCCCC4)ncn3)CC2)cc1
766 | Cc1ccc2c(ccn2CCNC(=O)C2CC(=O)N(c3n[nH]c4ccccc34)C2)c1 (configuration not stated)
904 | Cc1ccc(C(=O)N2CCCCC2c2nc(-c3ccncc3)no2)s1 (configuration not stated)
585 | CN1CCC(NC(=O)c2ccc(-n3cc(CNC(=O)C4CCC4)cn3)cc2)CC1
637 | CCc1nc2ccc(-c3noc(CNC(=O)c4ccccc4)n3)cc2n1CC
838 | O=C(NC1CCCCCCC1)C1CCN(S(=O)(=O)c2cc(C(=O)N3CCOCC3)cs2)CC1
699 | CC(=O)N1CCCN(C2=NS(=O)(=O)C(c3ccc(C)cc3)=C2C)CC1
1050 | CCN1C(=O)COc2ccc(-c3csc(NC(=O)C4CCCCC4)n3)cc21
769 | CC(C)N1C(=O)c2cccnc2Sc2cc(C(=O)N3CCCCC3)ccc21
843 | COc1cc(OC)cc(-c2nc(-c3ccc4ncn(C(C)C)c4c3)no2)c1
610 | CCN1CCN(c2cc(C)c3cc(NC(=O)c4ccc(Br)cc4)ccc3n2)CC1
748 | CCCNC(=O)C1CCCN(c2ccc(SCC(=O)Nc3ccc(C)c(Cl)c3)nn2)C1 (configuration not stated)

RP-LC retention time [s] | Structure (SMILES)
799 | O=C(CSc1cn(CC(=O)N2CCCCCC2)c2ccccc12)NCC1CCCO1 (configuration not stated)
909 | Cc1ccc(-c2cc3c(=O)n(Cc4nc(-c5ccccn5)no4)ccn3n2)cc1C
782 | O=C(C1COCC(=O)N1Cc1ccccc1)N1CCN(c2ccc(C(F)(F)F)cn2)CC1 (configuration not stated)
584 | COCC(=O)N1CCC(Oc2nccnc2N2CCOCC2)C1 (configuration not stated)
961 | COc1ccc(C2C(=O)N(C3CCC(C)CC3)CC(=O)N2Cc2cccs2)cc1OC (configuration not stated)
626 | Nc1nc(N2CCOCC2)ncc1C(=O)NCc1ccccc1F
776 | O=C(c1ccc(Br)o1)N1CCN(Cc2nnnn2-c2ccc(F)cc2)CC1
1250 | Cc1ccc(-c2noc(-c3ccccc3S(=O)(=O)N3CCCCC3C)n2)cc1 (configuration not stated)
886 | Cc1[nH]c(C(=O)N2CCC(CC(=O)NC3CCCCCC3)CC2)c(C)c1C(=O)OC(C)C
740 | Cc1ccc(Cn2c(=O)n(CCNC(=O)C3CC3)c3ncccc32)cc1
1050 | O=C(CCn1nnc2cc(-c3noc(CCC4CCCC4)n3)ccc21)N1CCCC1
904 | COCCN1C(=O)Cc2ccccc2C1C(=O)N1CCN(c2ccccc2Cl)CC1 (configuration not stated)
854 | COc1cc(OC)c(N(C)C(=O)C2CCCN(c3ncnc4c3nc3n4CCCCC3)C2)cc1Cl (configuration not stated)
616 | CCc1c(C)nc2nc(-c3ccco3)nn2c1N1CCN(c2ccccn2)CC1
625 | c1ccc(N2CCN(Cc3nc(-c4ccc(N5CCSCC5)nc4)no3)CC2)nc1
750 | CN(C)C(=O)c1ccc2c(c1)N(CC(=O)Nc1ccc3c(c1)OCCO3)C(=O)C1CCCCN21 (configuration not stated)
580 | CCOC(=O)c1[nH]c(C)c(CCC(=O)N2CCC(C(=O)NCCCN3CCOCC3)CC2)c1C
601 | Cn1c(N2CCN(S(=O)(=O)c3cc(F)ccc3F)CC2)nc2ccccc21
846 | COc1cc(NC(=O)C2CCN(C(=O)c3ncn4c3COC(c3ccccc3)C4)CC2)cc(OC)c1 (configuration not stated)
776 | Cc1oc(C2CCN(S(=O)(=O)c3ccccc3F)CC2)nc1C(=O)N1CCOCC1
728 | COc1ccccc1NC(=O)NCCc1nc2cccnc2n1C1CCCC1
766 | CC(CNC(=O)C1CCN(S(=O)(=O)c2ccc3c(c2)CCCC(=O)N3)CC1)c1ccccc1 (configuration not stated)
